This is an account of results in PMC12018770, “DEAD‐Box Helicase 6 Blockade in Brain‐Derived Aβ Oligomers From Alzheimer's Disease Patients Attenuates Neurotoxicity” (MedComm, 2025).

Entries after “also recorded” stand apart in the source; their conditions may differ.

Assay [1] relates to GST‐DDX6. The experiment in a line: GST pulldown with GST‐DDX6. It counts as binding. Conditions: 150 µg GST‐DDX6, 300 µg recombinant Aβ oligomers or negative control protein, overnight; n = 3. As to the method:
We conducted a series of in vitro experiments to investigate the mechanism by which DDX6 blockade affects Aβ oligomer neurotoxicity.
In accordance with the protocol provided in the GST pulldown kit (#21516; Thermo Fisher Scientific), 150 µg of GST‐DDX6 protein were rotated with 50 µL of glutathione agarose resin at 4°C for 3 h. The resin was then incubated overnight with 300 µg of recombinant Aβ oligomers or a negative control protein, washed with pH 8.0 glutathione elution buffer, and validated by dot blotting.

In assay [2] the test system is Aβ oligomers in AD brain. The experiment in a line: IHC colocalization with Aβ oligomers in AD brain sections. Conditions: AD7–AD10, n = 4; fluorescence scan over 120 µm. On the set-up: species or system human. From the text: To further validate the binding interactions between Aβ oligomers and the four proteins, we performed immunohistochemistry (IHC) on brain sections from four AD patients (AD7–AD10). We analyzed the colocalization of Aβ oligomers (red) with DDX6, JUP, HRNR, and DSP (all green), as well as 4',6‐diamidino‐2‐phenylindole (DAPI)‐stained nuclei (blue). […] We also performed fluorescence intensity scanning from left to right across stained brain tissue slices (120 µm). […] The combined results from co‐IP and IHC confirm that these four proteins can bind to Aβ oligomers.
Sections were dewaxed, subjected to antigen retrieval, and blocked. They were then incubated with primary antibody (1:500) overnight at 4°C, followed by secondary antibody (1:200). Nuclei were stained with DAPI (Beyotime; C1002, Shanghai, China) for 10 min in the dark.

The test system of assay [3] is human‐derived Aβ oligomers. The experiment in a line: AP-MS with SAINTexpress scoring of binding to human‐derived Aβ oligomers. Conditions: score 0 to 1; criteria SAINT score > 0.5 and fold change ≥ 2; AD1–AD6, n = 6. From the text:
Not all identified proteins bind to Aβ oligomers. Therefore, we used the SAINTexpress statistical method to screen for proteins most likely to interact with human‐derived Aβ oligomers. SAINTexpress assigns probability scores to factors interacting with target proteins, providing a value between 0 and 1, where higher scores indicate a greater likelihood of interaction with Aβ oligomers. Based on the analyzed results, we plotted the fold change on the x‐axis and SAINT scores on the y‐axis, with each point representing a protein. Proteins meeting the criteria of a SAINT score > 0.5 and fold change ≥ 2 were considered the most likely to bind Aβ oligomers (highlighted in red). Through rigorous analysis, we identified four proteins as binding partners (Figure 1C): DDX6 (SAINT score = 0.5783), DSP (SAINT score = 0.6608), JUP (SAINT score = 0.5846), and HRNR (SAINT score = 0.5246).
An aliquot of each peptide mixture was loaded onto a trap column (in‐house‐fabricated column packed with a reversed‐phase ReproSil‐Pur C18‐AQ resin, 150 µm × 15 cm, C18, 3 µm, 100 Å, Dr. Maisch GmbH, Germany) connected to an analytical column (EASY‐Spray column, […] × 75 µm ID, PepMap RSLC C18, 2 µm, 100 Å, Thermo Scientific, USA) using the autosampler of an EASY‐nLC 1200 HPLC system (Thermo Fisher Scientific). The peptides were eluted using a gradient (solvent A: 0.1% formic acid in water; solvent B: 80% acetonitrile/0.1% formic acid in water; Sigma, Germany) directly into a Q Exactive Hybrid Quadrupole‐Orbitrap mass spectrometer (Thermo Fisher Scientific). The gradient program was as follows: 4%–8% solvent B over 2 min, 8%–28% solvent B over 43 min, 28%–40% solvent B over 10 min, 40%–95% solvent B over 1 min, and 95% solvent B for 10 min. The following mass spectrometry parameters were used: spray voltage, 2.2 kV; capillary temperature, 270°C; MS resolution, 70,000 at 400 m/z; MS precursor m/z range, 300.0–1800.0 m/z; activation type, high‐energy collision dissociation; normalized collision energy, 28.0; activation time, […]; and data‐dependent MS/MS, top 20 most intense peptide ions selected based on the preview scan in the Orbitrap.
The raw MS files (Figure S5) were analyzed and searched against species‐specific protein databases using MaxQuant (v1.6.2.10). The following parameters were applied: maximum missed cleavages, 2; precursor ion mass tolerance, 20 ppm; and MS/MS tolerance, 20 ppm. Peptides and proteins were filtered to achieve a false discovery rate of < 1% using a target‐decoy database strategy, and only proteins with at least two unique peptides were reported. […] SAINT is a probabilistic method for scoring protein–protein interactions in AP‐MS experiments, enabling the identification of proteins most likely to interact with target proteins. […]

The test system of assay [4] is human‐derived Aβ oligomers. The experiment in a line: Co-immunoprecipitation / Western blotting of protein-Aβ oligomer interaction in AD brain extracts. Particulars: IgG isotype control. It counts as binding. An excerpt: After rigorous data analysis with SAINTexpress, four proteins (DDX6, DSP, JUP, and HRNR) were identified as potential Aβ oligomer‐binding partners. To validate these findings, we selected DSP and DDX6 as positive controls for co‐IP analysis; tau proteins were used as negative controls. Input samples, IP, co‐IP extracts, and IgG controls were adjusted to ensure equal amounts of protein for comparison. […] The IP enrichment effect was substantial for Aβ oligomers, DDX6, DSP, and tau proteins. In the co‐IP extracts for DDX6 and DSP, Aβ oligomers were detected at approximately 55 and 30 kDa, respectively (indicated by “ [drawing 1] ”). […] Isotype control IgG was used to exclude nonspecific binding (Figure 2A).
A Co‐IP kit (Thermo Fisher Scientific; #26149, USA) was used for the assay. Antibodies (2 µg) were crosslinked to a reinforced AminoLink coupling resin (20 µL of beads) and immobilized on a Pierce spin column at room temperature. Protein extracts (1 mg) were added to the spin column and incubated overnight at 4°C with rotation. The spin column was then transferred to a new collection tube, and 60 µL of elution buffer (pH 2.8, containing tertiary amine) was added. The column was centrifuged, and the eluate was analyzed to detect the presence of the target protein.
Protein concentrations in the co‐IP extracts were measured using a bicinchoninic acid assay (#23225, Thermo Fisher Scientific, USA). For each sample, 20 µL of protein was loaded, with the following amounts of human‐derived Aβ oligomers (AD1–AD6) used: 1.8 µg, 2.0 µg, 1.9 µg, 1.6 µg, 2.0 µg, and 1.8 µg, respectively. Equivalent amounts of co‐IP extracts were loaded into the remaining lanes. A 5× loading buffer was added to the protein samples to achieve a final concentration of 1×, and the samples were incubated at 95°C for 5 min [44]. […]
B. The PVDF membrane was probed with the Aβ oligomer antibody (A11), indicating enrichment of Aβ oligomers (post-IP) with bands observed at 55 kDa and 30 kDa. Aβ oligomers were detected in the co-IP products of DDX6 (indicated by “✸”). […]
A general note: A western blot detects proteins with antibodies after separation by electrophoresis.

Assay [5] deals with Aβ fibrillar plaques. The experiment in a line: ThT‐binding assay, fluorescence microscopy of fibrillar plaques. It counts as biochemical. Particulars: DDX6 10 µM, Aβ42 20 µM, Aβ42 oligomers 5 µM; n = 3.
The subject of assay [6] is Aβ42 oligomers. The assay can be described thus: Peptide chip microarray of DDX6 peptides (1–157) with Aβ42 oligomers. Conditions: Aβ oligomers 2.0 µg/mL, overnight 4°C; ECL; > 30% indicates effective binding site; Total Lab 100.
The subject of assay [7] is Aβ42 oligomers. The assay can be described thus: Binding of biotin‐labeled short peptides to Aβ42 oligomers. Conditions: biotin-labeled peptide probes; bands at 30 and 10 kDa for binders. As to the method:
We characterized the molecular mechanisms by which DDX6 influences Aβ oligomer neurotoxicity using real‐time quaking‐induced conversion (RT‐QuIC) to determine whether DDX6 promotes the formation of Aβ fibrillar plaques and oligomers. […] Next, we performed dot blotting assays (Figure 7D,E) on the four treatment groups using the A11 antibody. […] We also assessed the cytotoxic effects of the four treatment groups on HT‐22 cell cultures using CCK‐8 assays. […] Specific gray values were calculated using Total Lab 100 (Nonlinear Dynamics, Newcastle upon Tyne, UK).
(A) Cell counting kit‐8 (CCK‐8) cytotoxicity assay (n = 3). […] Total Lab 100 analysis software was used to calculate the percentage of gray values for 157 polypeptide spots.
The Aβ42 peptide was obtained from Abcam (#ab120301, USA). Aβ42 was solubilized using 1 mM hexafluoroisopropanol (#105228; Sigma‐Aldrich, Germany) and evaporated overnight in a desiccator to form a dry film. The film was then dissolved in dimethyl sulfoxide (#D8418; Sigma‐Aldrich) to a concentration of 5 mM, mixed with phosphate‐buffered saline, and incubated for 72 h at 4°C. The GST‐DDX6 protein was synthesized by KMD Bioscience Biotech Co., Ltd. (Tianjin, China). The biotin‐labeled short peptide was synthesized by Hubei Qiangyao Biotechnology Co., Ltd. (Hubei, China).

With “Aβ42 oligomers: oligomers prepared from Aβ42 peptide (Abcam #ab120301), PBS, 72 h at 4°C”, the “pulldown by GST‐DDX6” value in assay [1] is “successfully pulled down”.

Regarding DEAD‐box helicase 6 [DDX6], the “colocalization with Aβ oligomers” value in assay [2] is given as “strong colocalization”. The same molecule yielded an SAINT score in assay [3] of 0.5783. The “binding to Aβ oligomers by co‐IP” value in assay [4] was “DDX6 and DSP were also detected in Aβ oligomer co‐IP extracts; also recorded: DDX6 was detected in the co-IP products of Aβ oligomers”. Besides, the “fluorescence intensity by microscopy (in words)” value in assay [5] is “showed no effects on fluorescence intensity”.

On to GIDIQAVNVVINFDF [compound 133], for which, in assay [6], the “gray value of spot on peptide array” value was “exceeding 30%”. Moreover, the “interaction with Aβ42 oligomers” value in assay [7] was “all four binding peptides interacted with Aβ oligomers”.

On to GKSGAYLIPLLERLD [compound 49], for which the “gray value of spot on peptide array” value in assay [6] was “exceeding 30%”. Further, in assay [7], the “interaction with Aβ42 oligomers” value is “all four binding peptides interacted with Aβ oligomers”.

Take IKPIPSNIDKSLYVAEYHSEPVED [153–156]: the “gray value of spot on peptide array” value in assay [6] is reported as “exceeding 30%”. The “interaction with Aβ42 oligomers” value in assay [7] is recorded as “all four binding peptides interacted with Aβ oligomers”.

As to desmoplakin [DSP], in assay [2], the “colocalization with Aβ oligomers” value is recorded as “strong colocalization”. In assay [3], the SAINT score came out at 0.6608. In assay [4], the “binding to Aβ oligomers by co‐IP” value was “DDX6 and DSP were also detected in Aβ oligomer co‐IP extracts; also recorded: DSP was detected in the co-IP products of Aβ oligomers”.

Regarding hornerin [HRNR], the “colocalization with Aβ oligomers” value in assay [2] is “strong colocalization”. Also, the SAINT score in assay [3] is recorded as 0.5246.

With “tau: tau proteins were used as negative controls [reference compound]”, the “binding to Aβ oligomers by co‐IP” value in assay [4] is recorded as “No apparent binding was observed; also recorded: tau was not detected in the co-IP products of Aβ oligomers”.

B1: junction plakoglobin (protein)
chain: MEVMNLMEQPIKVTEWQQTYTYDSGIHSGANTCVPSVSSKGIMEEDEACGRQYTLKKTTTYTQGVPPSQGDLEYQMSTTARAKRVREAMCPGVSGEDSSLLLATQVEGQATNLQRLAEPSQLLKSAIVHLINYQDDAELATRALPELTKLLNDEDPVVVTKAAMIVNQLSKKEASRRALMGSPQLVAAVVRTMQNTSDLDTARCTTSILHNLSHHREGLLAIFKSGGIPALVRMLSSPVESVLFYAITTLHNLLLYQEGAKMAVRLADGLQKMVPLLNKNNPKFLAITTDCLQLLAYGNQESKLIILANGGPQALVQIMRNYSYEKLLWTTSRVLKVLSVCPSNKPAIVEAGGMQALGKHLTSNSPRLVQNCLWTLRNLSDVATKQEGLESVLKILVNQLSVDDVNVLTCATGTLSNLTCNNSKNKTLVTQNSGVEALIHAILRAGDKDDITEPAVCALRHLTSRHPEAEMAQNSVRLNYGIPAIVKLLNQPNQWPLVKATIGLIRNLALCPANHAPLQEAAVIPRLVQLLVKAHQDAQRHVAAGTQQPYTDGVRMEEIVEGCTGALHILARDPMNRMEIFRLNTIPLFVQLLYSSVENIQRVAAGVLCELAQDKEAADAIDAEGASAPLMELLHSRNEGTATYAAAVLFRISEDKNPDYRKRVSVELTNSLFKHDPAAWEAAQSMIPINEPYGDDMDATYRPMYSSDVPLDPLEMHMDMDGDYPIDTYSDGLRPPYPTADHMLA
For the molecule B1, the “colocalization with Aβ oligomers” value in assay [2] is “strong colocalization”. For the same molecule, in assay [3], the SAINT score stood at 0.5846.
